Earlier results as cited in patent publication US5087633A (G. D. Searle & Co., priority 1989, dated 1992).

Conditions: in vivo; cited from earlier work

CCCCCNCC(N)=O [milacemide]
Increase of whole brain content of glycine: 30%
